# Measurements reported in patent US20080108645A1, “Dihydrotetrabenazines And Pharmaceutical Compositions Containing Them” (CAMBRIDGE LABORATORIES, (IRELAND), LTD., priority 2004, published 2008).
# “Also recorded” adds a separate entry of the source.
# Key:
# Male Sprague-Dawley rats = test: Spontaneous locomotor activity in rats (sedative properties); format: in vivo, rat
# Protocol: A study was carried out in rats to determine whether the dihydrotetrabenazine isomers of the invention have sedative properties. The effects of the isomers on spontaneous locomotor activity in rats were compared with the effects produced by tetrabenazine and haloperidol using the methods set out below.
# Male Sprague-Dawley rats, (Charles River Laboratories, Saint-Germain/L'Arbresle, France), weighing 200-250 g at the beginning of the study, were used for the studies. The rats were housed, 2 or 3 per cage, in Makrolon type III cages, in a room set up with the following environmental conditions: temperature: 20±2° C., humidity: minimum 45%, air changes: >12 per hour, light/dark cycle of 12 h/12 h [on at 7:00 a.m.]. The rats were allowed to acclimatize to their conditions for at least five days before commencement of the study. The rats received food (Dietex, Vigny, France, ref. 811002) and water (tap water in water bottle) ad libitum.
# Solutions of each test compound in corn oil were freshly prepared on the day of the experiment. Haloperidol was prepared in hydroxyethylcellulose, 0.5% in deionized water. Either the vehicle or the test compounds were administered as a single dose (0.3, 1, 3 and 10 mg/kg, 2 mL/kg i.p.). The reference compound haloperidol (1 mg/kg) was administered i.p. (2 mL/kg).
# The animals were placed in plexiglass cages under a video camera in a room with low light intensity (maximum 50 lux). At forty five minutes and 3 hours after administration, locomotor activity was determined during 20 minute periods using a video image analyzer (Videotrack, View Point, France). Locomotor activity was recorded in the reference group (haloperidol) at 1 hour after administration. The number and duration of ambulatory movements and duration of inactivity was measured. At the end of the locomotor activity measurement (45 minutes and 3 hours), palpebral closure and arousal were be scored as follows in the plexiglass cage:
# The number of occurrences and duration (in seconds) of ambulatory (large) movements and the duration of periods of inactivity (seconds) was determined during two 20 minute periods (45 minutes and 3 hours after administration) using a video image analyzer (Videotrack, ViewPoint, Lyon, France). Image tracking was performed using a video camera placed above the plexiglass cage, recording overall locomotor activity. Images recorded with the video camera were digitalized and displacement of the centre of gravity of the digital image spots was tracked and analyzed using the following method: the speed of displacement of the centre of gravity of the spot was measured and two threshold values were set to define the type of movement: threshold 1 (high speed) and threshold 2 (low speed). When the animal moved and the speed of displacement of the centre of gravity of the spot was above threshold 1, the movement was considered as an ambulatory movement.
# The results were expressed as the means±SEMs of the 12 individual values. Statistical analyses were carried out using ANOVA (one way) and Dunnett's t-test and with the non parametric test of Kruskal-Wallis followed by a Mann & Whitney U-test for the sedation cotation. A p value of p<0.05 was taken as indicating significance.
# VMAT2 = VMAT2 (Homo sapiens, UniProt Q05940); conditions: Erickson et al. (1996); cited from earlier work
# Sequence of VMAT2 (Q05940 whole entry): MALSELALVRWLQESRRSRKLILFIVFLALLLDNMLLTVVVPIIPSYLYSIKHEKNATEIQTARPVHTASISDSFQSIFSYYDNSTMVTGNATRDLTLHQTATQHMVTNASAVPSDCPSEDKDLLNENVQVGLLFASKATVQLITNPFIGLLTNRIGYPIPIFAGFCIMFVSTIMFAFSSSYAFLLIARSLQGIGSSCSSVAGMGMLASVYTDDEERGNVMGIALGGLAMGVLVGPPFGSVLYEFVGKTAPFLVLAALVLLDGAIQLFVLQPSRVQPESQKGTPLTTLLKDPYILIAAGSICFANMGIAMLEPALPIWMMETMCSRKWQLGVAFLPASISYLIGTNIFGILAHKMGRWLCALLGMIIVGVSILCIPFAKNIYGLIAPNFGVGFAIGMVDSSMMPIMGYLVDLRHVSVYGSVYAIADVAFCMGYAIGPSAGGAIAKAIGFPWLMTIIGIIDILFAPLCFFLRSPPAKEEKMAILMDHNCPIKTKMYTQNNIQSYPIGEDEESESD
# [1] = 0.3 mg/kg i.p., 45 minutes after administration
# [2] = 0.3 mg/kg i.p., 3 hours after administration
# [3] = 1 mg/kg i.p., 45 minutes after administration
# [4] = 1 mg/kg i.p., 3 hours after administration
# [5] = 3 mg/kg i.p., 45 minutes after administration
# [6] = 3 mg/kg i.p., 3 hours after administration
# [7] = 10 mg/kg i.p., 45 minutes after administration
# [8] = 10 mg/kg i.p., 3 hours after administration
compound,measurement,setting,value
"COc1cc2c(cc1OC)C1CC(=O)C(CC(C)C)CN1CC2 (racemic) [Tetrabenazine, 1,3,4,6,7,11b-hexahydro-9,10-dimethoxy-3-(2-methylpropyl)-2H-benzo(a)quinolizin-2-one]",Inactivity Duration,Male Sprague-Dawley rats; [1],390.4 ± 37.4 s
same,Large movements Duration,Male Sprague-Dawley rats; [1],66.8 ± 10.7 s
same,Large movements Occurrence,Male Sprague-Dawley rats; [1],253 ± 32
same,Inactivity Duration,Male Sprague-Dawley rats; [2],545.9 ± 37.1 s
same,Large movements Duration,Male Sprague-Dawley rats; [2],24.3 ± 4.2 s
same,Large movements Occurrence,Male Sprague-Dawley rats; [2],96 ± 14
same,Inactivity Duration,Male Sprague-Dawley rats; [3],456.5 ± 50.5 s
same,Large movements Duration,Male Sprague-Dawley rats; [3],46.5 ± 8.6 s
same,Large movements Occurrence,Male Sprague-Dawley rats; [3],189 ± 32
same,Inactivity Duration,Male Sprague-Dawley rats; [4],556.9 ± 31.1 s
same,Large movements Duration,Male Sprague-Dawley rats; [4],21.5 ± 4.0 s
same,Large movements Occurrence,Male Sprague-Dawley rats; [4],90 ± 16
same,Inactivity Duration,Male Sprague-Dawley rats; [5],697.8 ± 39.7 s
same,Large movements Duration,Male Sprague-Dawley rats; [5],8.7 ± 5.9 s
same,Large movements Occurrence,Male Sprague-Dawley rats; [5],38 ± 25
same,Inactivity Duration,Male Sprague-Dawley rats; [6],729.9 ± 26.8 s
same,Large movements Duration,Male Sprague-Dawley rats; [6],1.7 ± 0.9 s
same,Large movements Occurrence,Male Sprague-Dawley rats; [6],9 ± 4
same,Inactivity Duration,Male Sprague-Dawley rats; [7],723.1 ± 46.5 s
same,Large movements Duration,Male Sprague-Dawley rats; [7],0.2 ± 0.2 s
same,Large movements Occurrence,Male Sprague-Dawley rats; [7],1 ± 1
same,Inactivity Duration,Male Sprague-Dawley rats; [8],762.1 ± 40.7 s
same,Large movements Duration,Male Sprague-Dawley rats; [8],0.6 ± 0.3 s
same,Large movements Occurrence,Male Sprague-Dawley rats; [8],3 ± 1
same,sedative effect (in words),"Male Sprague-Dawley rats; 0.3-10 mg/kg i.p., 45 minutes and 3 hours after administration",dose-dependent sedative effect; also recorded: dose related sedative effect
same,affinity for VMAT2 in comparison to VMAT1,VMAT2,≥ 200 fold
